In patent US6043263A, “(2,3-dihydrobenzofuranyl)-thiazoles as phosphodiesterase inhibitors” (Byk Gulden Lomberg Chemische Fabrik GmbH, priority 1996, dated 2000):
Where a name gives a salt, the structure may show the parent alone.

Tested on: PDE IV
Test: Inhibition of PDE IV activity
Format: biochemical
Conditions: method of Bauer and Schwabe adapted to microtiter plates
Description: The activity test was carried out according to the method of Bauer and Schwabe, which was adapted to microtiter plates (Naunyn-Schmiedeberg's Arch. Pharmacol. 311, 193-198, 1980). In this test, the PDE reaction takes place in the first step. In a second step, the charged 5'-nucleotide is cleaved to give the uncharge nucleoside by a 5'-nucleotidase of the snake veno of Ophiophagus hannah (king cobra). In the third step, the nucleoside is separated from the remaining charged substrate on ion exchange columns. The columns are eluted directly into minivials using 2 ml of 30 mM ammonium formate (pH 6.0) to which a further 2 ml of scintillator fluid is added for counting.
The inhibitory values determined for the compounds according to the invention result from Table 1 which follows, in which the numbers of the compounds correspond to the numbers of the examples.

Row | Compound | -log IC50
1 | COc1ccc(-c2csc(-c3cccnc3)n2)c2c1OC1(CCCC1)C2 [Compound 1, 3-[4-(2,3-Dihydro-7-methoxybenzofuran-2-spiro-1'-cyclopentan-4-yl)thiazol-2-yl]pyridine] | 7.74
2 | COc1ccc(-c2csc(-c3ccncc3)n2)c2c1OC1(CCCC1)C2 [Compound 2, 4-[4-(2,3-Dihydro-7-methoxybenzofuran-2-spiro-1'-cyclopentan-4-yl)thiazol-2-yl]pyridine] | 7.25
3 | CCOC(=O)c1cc(-c2nc(-c3ccc(OC)c4c3CC3(CCCC3)O4)cs2)ccn1 [Compound 3, Ethyl 4-[4-(2,3-Dihydro-7-methoxybenzofuran-2-spiro-1'-cyclopentan-4-yl)thiazol-2-yl]pyridine-2-carboxylate] | 7.22
4 | COc1ccc(-c2csc(-c3ccnc(C(=O)O)c3)n2)c2c1OC1(CCCC1)C2 [Compound 4, 4-[4-(2,3-Dihydro-7-methoxybenzofuran-2-spiro-1'-cyclopentan-4-yl)thiazol-2-yl]pyridine-2-carboxylic acid semihydrochloride] | 6.85
5 | COc1ccc(-c2csc(-c3cccc(C(=O)O)c3)n2)c2c1OC1(CCCC1)C2 [Compound 5, 3-[4-(2,3-Dihydro-7-methoxybenzofuran-2-spiro-1'-cyclopentan-4-yl)thiazol-2-yl]benzoic acid] | 7.79
